Laboratory results: patent US11478488B2, “Co-crystals of tramadol and coxibs” (ESTEVE PHARMACEUTICALS, S.A., priority 2009, dated 2022)
Where two headings read alike, the source gives them in different places.

Legend:
[1] = tested on: motor behaviour of monoarthritic rats (carrageenan-induced gait changes); assay: Pain-induced gait adaptation (CBMS) in carrageenan-induced acute monoarthritic model; settings: intraperitoneal 4.5 h after carrageenan, measured 30 min after administration; co-crystal 20 mg/kg, single drugs at corresponding dose
Experimental: Movement-evoked pain was evaluated by a computerized behavioral monitoring system (CBMS).
The rat carrageenan model utilizes inflammation-associated pain following injection of the knee joint (monoarthritic model). […] The CBMS was used to assess gait related changes 5 hours after carrageenan injection and 30 min after drugs administration. […] Mechanical allodynia was measured with von Frey filaments 15 minutes after CBMS gait analysis.
Food and water were available ad libitum up to test time.
The dosing volume was 2 ml/kg. The drug response of the animal was subsequently evaluated 30 and 45 min after drug administration (for CBMS and von Frey respectively).
Joint inflammation was induced by carrageenan (Sigma Chemical, St. Louis, Mo.) injected percutaneously using a 30-gauge needle through the infrapatellar ligament into the right knee joint cavity (300 μg, 40 μl) with the animal under brief isoflurane (IsoFlo®, Abbott-Esteve, Barcelona, Spain) anaesthesia (3%).
Detailed analysis of gait was performed on walking rats using the CBMS method. Briefly, light from a fluorescent tube is sent through a glass plate. Light rays are completely reflected internally. As soon as anything, e.g. a rat's paw, is in contact with the glass surface, light is reflected downwards. It results in a sharp image of a bright paw print. The whole run is recorded via a camera placed under the glass plate. […]

[2] = tested on: incision-induced thermal hyperalgesia in the incised rat hind paw; assay: Thermal hyperalgesia (plantar test, Hargreaves) in paw incision postoperative pain model; type: in vivo, Wistar rats; settings: for ED50: read-out: ED50 thermal hyperalgesia (after sigmoidal adjustment); for Efficacy on thermal hyperalgesia: rat paw incision, intraperitoneal dose response, FIG. 8
Experimental: (§1) Male, Wistar rats (120-160 g, Harlan, Italy) were housed in a climate-controlled room for at least 5 days prior to testing.
(§2) The dosing volume was 10 ml/kg. The antihyperalgesic or antiallodynic response of the animal was subsequently evaluated 60 min after drug administration.
(§3) Rats were anaesthetized with 3% isofluorane for veterinary use, employing an Ohmeda vaporizer and an anaesthesia chamber. Anaesthesia was kept during the surgical operation by a tube which directs the isoflurane vapours to the animal's snout. Once the rats were anaesthetised, they were laid down in a prone position and their right hindpaws were cleaned out with alcohol. Then, a 1 cm longitudinal incision was made with a number 23 scalpel, through skin and fascia of the plantar aspect of the paw, starting 0.5 cm from the proximal edge of the heel and extending toward the toes. Therefore, both superficial (skin) and deep (muscle) tissues and nerves were injured. Finally, the skin of the paw was stitched with a suturing stitch with breaded silk (3.0) and the wound was cleaned out with povidone.
(§4) The drugs were tested 4 hours after the surgery (plantar incision); 60 minutes after the administration of the product, two behavioural endpoints were evaluated: thermal hypersensitivity or hyperalgesia, and mechanical hypersensitivity or allodynia.
Animals were placed in the methacrylate cages of said apparatus, having a crystal floor. The acclimation period within the cages was about 10 minutes. The thermal stimulus came from a lamp moving below the crystal floor and which was applied to both paws, with a minimum interval of 1 minute between both stimulations in order to avoid learning behaviours. The rat is able to withdraw the paw freely when it feels discomfort (pain) produced by the heat coming from the lamp; then it is switched off and the latency time to the withdrawal response is recorded in seconds. In order to avoid hurting the animal's paw, the lamp was automatically switched off after 32 seconds.

[3] = tested on: incision-induced mechanical allodynia in the incised rat hind paw; assay: Mechanical allodynia (von Frey filaments) in paw incision postoperative pain model; type: in vivo, Wistar rats; settings: ip
Experimental: as §1, §2, §3, §4
Mechanical allodynia was tested using von Frey filaments. Animals were placed in methacrylate cylinders on an elevated surface, with metallic mesh floor perforated in order to apply the filaments. After an acclimation period of about 30 minutes within the cylinders, both hindpaws were stimulated (the injured and the non-injured paw, serving the latter as control), starting with the lowest force filament (0.4 g) and reaching up to a 15 g filament. The animal's response to pain was manifested by the withdrawal of the paw as a consequence of the painful stimulus caused by a filament. The pressure (force in grams) threshold eliciting the withdrawal of the paw was recorded.
Where it is established that Zmix<Zadd for a specific fixed-ratio, then that composition has a synergistic anti-hyperalgesic effect. Both ED50 mix and ED50 add values are random variables. ED50 mix is determined from the dose-response curve for a specific fixed-ratio of the components; ED50 add is calculated from the ED50 values for the individual drugs. Zmix is then compared to Zadd via a Student's t-test.

[4] = intraperitoneal single dose, 4 h after surgery, evaluated 60 min after administration, read-out: ED50 mechanical allodynia (after sigmoidal adjustment)
[5] = intraperitoneal, separate ED50 of single drugs for isobologram analysis, read-out: ED50 on mechanical allodynia as used in the isobologram (FIG. 7)

## COc1cccc(C2(O)CCCCC2CN(C)C)c1 (racemic) [Tramadol, 2-(dimethylaminomethyl)-1-(3-methoxyphenyl)cyclohexanol]
[1]
  Effect on carrageenan-induced gait changes (CBMS): inhibited
[2]; Rattus norvegicus, ip
  ED50: 8.3 mg/kg
[2]
  Efficacy on thermal hyperalgesia: full efficacy
[3]; [4]
  ED50: 5.41 mg/kg
[3]; [5]
  ED50: 5.28 mg/kg

## Cc1ccc(-c2cc(C(F)(F)F)nn2-c2ccc(S(N)(=O)=O)cc2)cc1 [Celecoxib, 4-[5-(4-methylphenyl)-3-(trifluoromethyl)-pyrazol-1-yl]benzenesulfonamide]
[1]
  Effect on carrageenan-induced gait changes (CBMS): inhibited
[2]; Rattus norvegicus, ip, 1 h, read-out: Emax thermal hyperalgesia, rat paw incision, intraperitoneal, 60 min after administration
  Emax: 45%
[2]; Rattus norvegicus, ip
  ED50: 2.35 mg/kg
[2]
  Efficacy on thermal hyperalgesia: only a partial response
[3]; [4]
  ED50: 3.03 mg/kg
[3]; [5]
  ED50: 3.01 mg/kg
